# Assay results: patent US20230312510A1, “COMPOUNDS AND METHODS FOR TREATING NEURODEGENERATIVE DISEASES” (The McLean Hospital Corporation, priority 2020, published 2023)
# Legend:
# [1] = tested on: HeLa cells; assay: Starvation-induced autophagy in HeLa cells (Western blot of LC3B and p62); assay type: cell-based; conditions: EBSS 0-4 hrs, BafA1 10 nM, CQ 20 μM, SPV-94 1 μM
# Procedure: To limit basal autophagy, cells were incubated in fresh growth medium for 1 hr before starvation. Samples were analyzed by Western blot using autophagic flux markers LC3B and p62 (A) and its expression levels were quantified (10B and 10C).
# [2] = molecular target: T1, Nurr1-LBD (Homo sapiens, UniProt P43354); assay: Luciferase activity assay (p4xNL3-Luc reporter) with Nurr1-LBD in SK-N-BE(2)C cells; assay type: cell-based; design: expressed in transfected cells; host or cells: SK-N-BE(2)C human neuroblastoma cells; conditions: SK-N-BE(2)C cells; read-out: EC50, transcriptional activity of Nurr1-LBD
# T1 sequence (P43354 360-595 limits assumed): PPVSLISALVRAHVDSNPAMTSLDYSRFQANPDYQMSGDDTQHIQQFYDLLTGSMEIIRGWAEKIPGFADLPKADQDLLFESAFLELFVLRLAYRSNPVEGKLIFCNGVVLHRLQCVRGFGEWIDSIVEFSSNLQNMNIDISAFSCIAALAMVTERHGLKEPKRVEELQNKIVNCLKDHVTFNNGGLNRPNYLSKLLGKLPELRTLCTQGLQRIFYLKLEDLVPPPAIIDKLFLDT
# [3] = tested on: mouse bone marrow-derived primary macrophages (mBMMs); assay: LPS- or poly(I:C)-induced pro-inflammatory gene expression in mBMMs; assay type: cell-based; conditions: CQ 10 μM, SPV-94 1 μM
# Source text: (§1) Besides the role as an activator of DAergic genes, Nurr1 is known as a repressor of inflammatory genes in astrocytes and microglia (See Saijo et al., Cell 2009, 137, 47-59).
# [4] = tested on: Nurr1-LBD and full-length Nurr1; assay: Luciferase activity assay (Nurr1 transactivation) in MN9D cells; assay type: cell-based, murine
# [5] = tested on: MPTP-induced PD model mice; assay: Sub-chronic MPTP-induced mice model of PD; conditions: for body weight recovery / cylinder test, rearing numbers, sub-chronic treatment / pole test, time to traverse, sub-chronic treatment / rotarod latency to fall, sub-chronic treatment: L-DOPA 50, CQ 40, SPV-94 5 mg/kg/day; for TH+ DAergic neurons (counting and densitometry): STR, SNpc and OB; for dyskinesia in the abnormal involuntary movements (AIMs) test: chronic administration; for olfactory discrimination test (olfaction), chronic treatment: day 14; for rotarod latency to fall, chronic treatment: day 15
# Procedure: Sub-chronic MPTP regimen (30 mg/kg/day, 5 days) was introduced.
# [6] = tested on: Nurr1-LBD and full-length Nurr1; assay: Luciferase activity assay (Nurr1 transactivation) in N27-A cells; assay type: cell-based, murine
# [7] = tested on: BV2 cells; assay: LPS-induced TNFα mRNA expression in BV2 cells (real-time PCR); assay type: cell-based, mouse; conditions: LPS 1 μg/ml, compound 1 μM
# Source text: as §1
# [8] = tested on: N27-A cells; assay: Protection against MPP+-induced toxicity in N27-A cells (MTT, LDH); conditions: 1 mM MPP+
# [9] = tested on: N27-A cells; assay: Starvation-induced autophagy and Nurr1 expression in N27-A cells with or without MPP+; assay type: cell-based; conditions: CQ 20 μM, SPV-94 1 μM
# Procedure: LC3B, p62 and Nurr1 expression levels determined by Western blot (D) were quantified.
# Next, autophagy regulation was assessed in a dopaminergic cell line N27-A in the absence or presence of MPP^+ (1 mM). […] Furthermore, it was observed that MPP disrupted autophagy showing accumulated LC3B-II and remained p62 at the late-stage, which corresponds to the previous studies (See Lim et al., Autophagy 2011, 7, 51-60; Hung et al., PLoS ONE 2014, 9, e91074; Park et al., J Biol Chem 2016, 291, 3531-3540).
# Referring to FIGS. 10D-10G, N27-A cells were treated with vehicle or MPP+ (1 mM) for 24 hrs and then changed with fresh growth medium with or without MPP+ 1 hr before starvation. […] To induce autophagy, N27-A cells were incubated in EBSS for 0-4 hrs, in the absence or presence of MPP+. Samples were analyzed by Western blot using autophagic flux markers LC3B and p62 (D) and its expression levels were quantified (10E and 10F). […] (10G) Nurr1 expression level changes were also analyzed and quantified.
# [10] = tested on: mouse embryonic ventral mesencephalic (mVM) primary neurons; assay: Dopaminergic gene expression in mVM primary neurons with or without 6-OHDA; assay type: cell-based
# Procedure: FIGS. 8A-8D show dopaminergic (DAergic) gene expressions in the absence or presence of 6-OHDA (20 μM) in mouse embryonic ventral mesencephalic (mVM) primary neurons derived from embryonic day 12.5 (E12.5).
# [11] = molecular target: T2, full-length Nurr1 (Homo sapiens, UniProt P43354); assay: Luciferase activity assay (p4xNL3-Luc reporter) with full-length Nurr1 in SK-N-BE(2)C cells; assay type: cell-based; conditions: SK-N-BE(2)C cells; read-out: EC50, transcriptional activity of full-length Nurr1
# T2 construct: expressed in transfected cells; host or cells: SK-N-BE(2)C human neuroblastoma cells
# T2 sequence (P43354 whole entry): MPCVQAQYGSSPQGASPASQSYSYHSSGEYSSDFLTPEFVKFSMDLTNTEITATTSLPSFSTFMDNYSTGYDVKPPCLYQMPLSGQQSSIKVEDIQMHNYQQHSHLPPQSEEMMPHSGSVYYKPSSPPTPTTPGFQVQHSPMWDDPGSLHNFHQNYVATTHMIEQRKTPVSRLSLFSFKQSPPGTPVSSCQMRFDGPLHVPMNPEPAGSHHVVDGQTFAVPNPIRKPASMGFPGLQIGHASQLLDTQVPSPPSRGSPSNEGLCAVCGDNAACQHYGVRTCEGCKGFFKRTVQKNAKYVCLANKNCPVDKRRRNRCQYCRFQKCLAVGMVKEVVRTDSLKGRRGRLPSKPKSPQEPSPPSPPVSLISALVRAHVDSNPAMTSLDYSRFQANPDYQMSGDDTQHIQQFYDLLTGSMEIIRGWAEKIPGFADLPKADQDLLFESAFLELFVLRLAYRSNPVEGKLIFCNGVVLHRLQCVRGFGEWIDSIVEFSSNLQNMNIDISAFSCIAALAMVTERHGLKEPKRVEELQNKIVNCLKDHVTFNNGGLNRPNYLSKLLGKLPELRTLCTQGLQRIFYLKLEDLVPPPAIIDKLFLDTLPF
# [12] = molecular target: T1, Nurr1-LBD; assay: Radioligand competition binding assay using [3H]-CQ
# [13] = tested on: MN9D cells; assay: Protection against MPP+-induced toxicity in MN9D cells (MTT reduction, LDH release)
# Procedure: Cell viability and cytotoxicity were measured by MTT (3-(4,5-dimethylthiazol-2-yl)-2,5-diphenyltetrazolium bromide) reduction assay.
# Cell viability and cytotoxicity were measured by lactate dehydrogenase (LDH) release assay.
# [14] = tested on: CD-1 mice; assay: Escalating dose maximum tolerated dose study; assay type: in vivo; conditions: oral; for cage side observation, clinical signs: escalating dose from 5 mg/kg
# Procedure: The objective of this study was to evaluate the escalating dose maximum tolerated dose study of compound of Formula (II) and comparative example
# in CD-1 mice. Animals were monitored on a daily basis with body weights and clinical signs, and any abnormal observation findings were recorded.
# [15] = Pharmacokinetic study after single oral administration; assay type: in vivo, Rat; conditions: Sprague-Dawley (SD), plasma, 20 mg/kg; for AUC(0-t): rat, Male SD Rats, PO; for concentration at 0.083 h / concentration at 0.25 h / concentration at 0.5 h / concentration at 1 h / concentration at 2 h / concentration at 4 h / concentration at 8 h / concentration at 24 h: male, Rat, oral, read-out: Plasma Conc.
# Source text: The objective of this study was to characterize the pharmacokinetics (PK) of compound of Formula (II) in Male SD Rats after single intravenous (IV) and oral (PO) administration. […] Following PO administration with comparative example 2: […]
smiles,measurement,setting,value
"CO/C1=C\C(C)=C\[C@@H](C)[C@@H](O)[C@@H](C)C/C(C)=C/C=C/[C@H](OC)[C@@H]([C@@H](C)[C@@H](O)[C@H](C)[C@@]2(O)C[C@@H](O)[C@H](C)[C@@H](C(C)C)O2)OC1=O [BafA1, bafilomycin A1]","autophagy process (LC3B, p62)",[1],induced autophagy initiation but inhibited autophagy process termination
"CCN(CC)CCCC(C)Nc1ccnc2cc(Cl)ccc12 (centres unmarked) [CQ, chloroquine]",EC50,[2],50 µM
same,"LPS- or poly(I:C)-induced pro-inflammatory gene expressions (TNFα, iNOS, IL-1β, IL-6)",[3],significantly suppressed LPS- or poly(I:C)-induced pro-inflammatory gene expressions
same,transcriptional activities of Nurr1-LBD and full-length Nurr1,[4],enhanced transcriptional activities
same,body weight recovery,[5],regained body weight after day 8
same,"cylinder test, rearing numbers, sub-chronic treatment",[5],recovered rearing numbers in the cylinder test
same,"pole test, time to traverse, sub-chronic treatment",[5],reduced time to traverse on a pole
same,"rotarod latency to fall, sub-chronic treatment",[5],significantly improved motor deficits on the rotarod latency to fall
same,TH+ DAergic neurons (counting and densitometry),[5],significantly restored DAergic neurons
same,dyskinesia in the abnormal involuntary movements (AIMs) test,[5],did not trigger dyskinesia
same,"olfactory discrimination test (olfaction), chronic treatment",[5],significantly recovered olfaction
same,"rotarod latency to fall, chronic treatment",[5],improved latency to fall on the rotarod on day 15
same,transcriptional activities of Nurr1-LBD and full-length Nurr1,[6],enhanced transcriptional activities
same,suppression of TNFα expression compared to LPS only,[7],35.53%
same,"cytotoxicity, LDH assay",[8],reduced cytotoxicity in LDH assay
same,"autophagy process (LC3B, p62)",[1],induced autophagy initiation but inhibited autophagy process termination
same,basal Nurr1 expression level compared to VEH,[9],significantly higher
same,DAergic gene expressions downregulated by 6-OHDA toxicity,"[10]; 6-OHDA 20 μM, CQ 20 μM, SPV-94 0.5 μM",significant recovery of downregulated DAergic gene expressions
same,"mRNA expression levels of DAergic genes (TH, DAT, AADC, VMAT2, c-Ret, Pitx3)","[10]; CQ 20 μM, SPV-94 0.5 μM, vs vehicle",significantly upregulated mRNA expression levels of DAergic genes
same,effects on DAergic gene expression in Nurr1 knockdown condition,[10]; Nurr1 KD,disappeared
same,EC50,[11],50 µM
same,Ki,[12],0.0284 µM
same,IC50,"[12]; 1,000 nM [3H]-CQ, 0.2 μM Nurr1-LBD, estimated, read-out: half maximal inhibitory concentration (IC50), competition with [3H]-CQ for binding to Nurr1-LBD",1 µM
same,"cytotoxicity, LDH release assay",[13]; 500 μM MPP+,reduced cytotoxicity
same,protective effect against MPP+-induced toxicity under Nurr1 overexpression (OE),"[13]; CQ 100 μM, SPV-94 1 μM, vs Mock",potentiated protective effects
Clc1ccc2c(NCCN3CCN(c4ccnc(-n5ccnc5)n4)CC3)ccnc2c1 [Formula (II)],"cage side observation, clinical signs",[14]; CD-1 mice,no abnormalities were observed
same,AUC(0-t),[15],7340 ng·h/mL
same,concentration at 0.083 h,[15],10.7 ng/mL
same,concentration at 0.25 h,[15],118 ng/mL
same,concentration at 0.5 h,[15],559 ng/mL
same,concentration at 1 h,[15],1180 ng/mL
same,concentration at 2 h,[15],1020 ng/mL
same,concentration at 4 h,[15],953 ng/mL
same,concentration at 8 h,[15],294 ng/mL
same,concentration at 24 h,[15],16.8 ng/mL
"N[C@@H](Cc1ccc(O)c(O)c1)C(=O)O [L-DOPA, L-3,4-dihydroxyphenylalanine]","olfactory discrimination test (olfaction), sub-acute stage",[5],failed to restore olfaction
same,body weight recovery,[5],regained body weight after day 8
same,"cylinder test, rearing numbers, sub-chronic treatment",[5],recovered rearing numbers in the cylinder test
same,"pole test, time to traverse, sub-chronic treatment",[5],reduced time to traverse on a pole
same,"rotarod latency to fall, sub-chronic treatment",[5],significantly improved motor deficits on the rotarod latency to fall
same,Nurr1-immunoreactive cells,[5]; SNpc,failed to protect Nurr1 expressions
same,Iba-1+ microglia numbers,[5]; STR and SNpc,failed to suppress microglial activation
same,TH+ DAergic neurons (counting and densitometry),[5],did not show protective effect
same,dyskinesia in the abnormal involuntary movements (AIMs) test,[5],developed dyskinesia
same,"olfactory discrimination test (olfaction), chronic treatment",[5],could not recover olfaction even with chronic treatment
same,"rotarod latency to fall, chronic treatment",[5],improved latency to fall on the rotarod on day 15
same,velocity during olfactory discrimination,[5]; sub-acute stage,hyperactivity indicated as increased velocity
Cc1cc(NCCCNc2ccnc3cc(Cl)ccc23)nc(N2CCN(C)CC2)n1 [comp. ex. 2],AUC(0-t),[15],250 ng·h/mL
same,concentration at 0.083 h,[15],5.15 ng/mL
same,concentration at 0.25 h,[15],6.68 ng/mL
same,concentration at 0.5 h,[15],9.91 ng/mL
same,concentration at 1 h,[15],13.9 ng/mL
same,concentration at 2 h,[15],14.9 ng/mL
same,concentration at 4 h,[15],12 ng/mL
same,concentration at 8 h,[15],16.5 ng/mL
same,concentration at 24 h,[15],5.92 ng/mL
Cc1cc(NCCCNc2ccnc3cc(Cl)ccc23)nc(N2CCCC2)n1 [comp. ex. 3],AUC(0-t),[15],271 ng·h/mL
same,concentration at 0.083 h,[15],7.71 ng/mL
same,concentration at 0.25 h,[15],16 ng/mL
same,concentration at 0.5 h,[15],16.6 ng/mL
same,concentration at 1 h,[15],19.4 ng/mL
same,concentration at 2 h,[15],23.3 ng/mL
same,concentration at 4 h,[15],19.5 ng/mL
same,concentration at 8 h,[15],14.5 ng/mL
same,concentration at 24 h,[15],3.53 ng/mL
Cc1cc(NCCCNc2ccnc3cc(Cl)ccc23)nc(N2CCCCC2)n1 [comparative example],tolerability at 40 mg/kg,"[14]; CD-1 male mice, 40 mg/kg",cannot be tolerated well
same,clinical signs and outcome at 40 mg/kg,"[14]; CD-1 mice, 40 mg/kg","prone, slightly low temperature and twitched to death on the fourth dosing day"
same,"cage side observation, clinical signs",[14]; CD-1 mice,"weight loss, roach back, rough coat, low temperature, low activity, tremble or/and dying"
